Results taken from patent publication US20250188090A1, “A METHOD FOR EXTRACTION OF ALKALOID” (priority 2022, published 2025).

Assay type: physicochemical
Details: pH 9

## COC1=CC=C2[C@H]3Cc4ccc(O)c5c4[C@@]2(CCN3C)[C@H]1O5 [oripavine]
  % in the solvent after a 1-stage extraction (corresponding to D): 93.3%
  maximum D value: 14.5
  single stage extraction efficiency for oripavine: 96%
